Test results taken from patent publication US8148424B2, “Tocopherols, tocotrienols, other chroman and side chain derivatives and uses thereof” (Research Development Foundation, priority 1998, dated 2012).
In brackets after ≈: the same amount, converted by molar mass. Each block holds one molecule with its values, some of them ahead of it.

Assays:
[1] = test system: human cancer cells from a wide variety of cell lineages; test: Apoptosis induction in a battery of tumor cells; assay type: cell-based; conditions: breast, prostate, leukemia/lymphoid, cervical, ovarian, endometrial, colon, lung cell lines
Experimental: (§1) Cells were cultured at 1.5×10^5 cells/well in 12 well plates. Cells were allowed to adhere overnight, then incubated with novel test compounds at 0.01, 0.1, 1, 5, 10 & 20 μg/mL for 1, 2 and 3 days. After treatment, cells (floating+trypsin released adherent cells) were pelleted, washed and stained with 2 μg/ml DAPI (4′,6-diamidine-2′-phenylindole dihydrochloride) in 100% methanol for 15 minutes at 37° C. and/or 3′-OH ends resulting from DNA fragmentation were detected with the TUNEL (terminal deoxynucleotidyl transferase-mediated dUTP-X 3′ nick end-labeling) technique, and then viewed using a Zeiss ICM 405 microscope. Cells whose nucleus contained clearly condensed or fragmented chromatin or stained for fragmented DNA in the TUNEL assay were scored as apoptotic. Data are presented as percent cells undergoing apoptosis.

[2] = test system: LnCaP; test: Bioassay for apoptosis (apoptotic EC50); assay type: cell-based, human; conditions: for apoptotic EC50: unit not given, in µg/mL; for EC50: Homo sapiens, unit inferred
Experimental: as §1

[3] = test system: HL-60; test: Bioassay for apoptosis (apoptotic EC50); assay type: cell-based, human; conditions: for apoptotic EC50: HL-60, unit not given, in µg/mL
Experimental: as §1

[4] = test system: PC-3; test: Bioassay for apoptosis (apoptotic EC50); assay type: cell-based, human; conditions: PC-3; unit not given; in µg/mL
Experimental: as §1

[5] = test system: MDA-MB-435; test: Bioassay for apoptosis (apoptotic EC50); assay type: cell-based, human; conditions: for apoptotic EC50: MDA-MB-435, unit not given; for EC50: Homo sapiens, MDA-MB-435, MDA-MB-435, unit inferred, read-out: apoptotic EC50
Experimental: as §1

[6] = test system: MCF-7; test: Bioassay for apoptosis (apoptotic EC50); assay type: cell-based, human; conditions: for apoptotic EC50: MCF-7, unit not given, in µg/mL; for EC50: Homo sapiens, MCF7, MCF-7, unit inferred
Experimental: as §1

[7] = test system: C-170; test: Bioassay for apoptosis (apoptotic EC50); assay type: cell-based, human; conditions: for apoptotic EC50: C-170, unit not given, in µg/mL; for EC50: Homo sapiens, C170, C-170, unit inferred
Experimental: as §1

[8] = test system: RL-95-2; test: Bioassay for apoptosis (apoptotic EC50); assay type: cell-based, human; conditions: for EC50: Homo sapiens, RL95-2, RL-95-2, unit inferred
Experimental: as §1

[9] = test system: ME-180; test: Bioassay for apoptosis (apoptotic EC50); assay type: cell-based, human; conditions: for apoptotic EC50: ME-180, unit not given, in µg/mL; for EC50: Homo sapiens, ME-180, ME-180, unit inferred
Experimental: as §1

[10] = test system: MDA-MB-231; test: Bioassay for apoptosis (apoptotic EC50); assay type: cell-based, human; conditions: for apoptotic EC50: MDA-MB-231, unit not given, in µg/mL; for EC50: Homo sapiens, MDA-MB-231, MDA-MB-231, unit inferred
Experimental: as §1

[11] = test system: DU-145 Human Prostate Cancer Cells Transplanted into Nude Mice; test: Preclinical chemotherapeutic xenograft study; assay type: in vivo; conditions: for Mean tumor Weights (mg) Following Treatments / Percent mean tumor weight gain (mg) following treatments: positive control 1 mg/kg i.v. daily for 5 days
Experimental: (§2) For the preclinical chemotherapeutic studies, in the absence of an maximum tolerated dose, the mice are supplemented with 30 and 20 mgs/0.1 ml by gavage daily for 21 days. Compound 1 is dissolved in 100% ethanol at 2 grams of compound 1/5 mls of ethanol, and diluted in peanut oil (nonsupplemented vitamin E) to yield 30 and 20 mgs of compound 1 per 0.1 ml. Vehicle control consisted of a mixture of ethanol and peanut oil equivalents. The preclinical chemotherapeutic studies are conducted with compound 1, utilizing human MDA-MB-435 human breast cancer cells, human DU-145 prostate cancer cells, and human HT-20 colon tumor cells transplanted into Balb/c immune compromised nude mice.
(§3) A total of 40 immune compromised nude mice are utilized for testing each test compound (two treatment groups at 20 and 30 mg/day) in each tumor cell type. […] Tumor cells are transplanted subcutaneously into the left flank and permitted to grow to approximately 70 mg in size, test compound treatments by daily gavage are initiated, and continue for a total of 21 days. Mice are monitored daily for tumor size by caliper measurements. Mice are treated for 21 days; however, the mice are sacrificed when the tumors of the vehicle control reached 500 mg in weight. At the completion of the protocol, tumors are excised and tumor size established by weight. At the time of sacrifice, serum, tumor, and heart muscle are taken from animals in the two compound 1 test groups in order to establish levels of compound 1 via HPLC analyses (data not included). The chemotherapeutic effectiveness of compound 1 administered daily at 30 and 20 mgs/day is determined by comparing the tumor size of the two treatment groups with the vehicle control group for each of the three tumor types, and by comparing the size of the tumor in the two treatment groups with the tumor group from the positive control. Treatment is for 21 days, experiments are continued until mean weight of tumor for vehicle control reaches 500 mgs.

[12] = test system: HMEC; test: Bioassay for apoptosis (apoptotic EC50); assay type: cell-based; conditions: Homo sapiens, unit inferred
Experimental: as §1

[13] = test system: MCF-10A; test: Bioassay for apoptosis (apoptotic EC50); assay type: cell-based; conditions: Homo sapiens, unit inferred
Experimental: as §1

[14] = test system: HT-29 Human Colon Cancer Cells Transplanted into Nude Mice; test: Preclinical chemotherapeutic xenograft study; assay type: in vivo; conditions: for Mean tumor Weights (mg) Following Treatments / Percent mean tumor weight gain (mg) following treatments: positive control 30 mg/kg daily for 5 days
Experimental: as §2, §3

[15] = test system: MDA-MB-435 Human Breast Cancer Cells Transplanted into Nude Mice; test: Preclinical chemotherapeutic xenograft study; assay type: in vivo; conditions: for Percent mean tumor weight gain (mg) following treatments / Mean tumor Weights (mg) Following Treatments: positive control 20 mg/kg i.p. daily for 5 days
Experimental: as §2, §3

apoptotic EC50 [2]: 5-10
apoptotic EC50 [3]: 10-20
apoptotic EC50 [4]: 5-10
apoptotic EC50 ([5]; in µg/mL): 5-10
apoptotic EC50 [6]: 20-30
apoptotic EC50 [7]: 10-20
apoptotic EC50 ([8]; RL-95-2, unit not given, in µg/mL): 10-20
apoptotic EC50 [9]: 10-20
apoptotic EC50 [10]: 5-10
Molecule: Cc1c(C)c2c(c(C)c1OCCCC(=O)O)CC[C@@](C)(CCC[C@H](C)CCC[C@H](C)CCCC(C)C)O2 [Compound 3, 2,5,7,8-tetramethyl-(2R-(4R,8R,12-trimethyltridecyl)chroman-6-yloxy) butyric acid]
growth inhibitory (apoptotic inducing) properties specific for human cancer cells [1]: effective

Molecule: O=C1c2c(O)ccc(O)c2C(=O)c2c(NCCNCCO)ccc(NCCNCCO)c21 [Mitoxantrone, reference compound]
Mean tumor Weights (mg) Following Treatments ([11]; day 1): 66.8 mg
Percent mean tumor weight gain (mg) following treatments ([11]; day 1): 100%
Mean tumor Weights (mg) Following Treatments ([11]; day 5): 107.2 mg
Percent mean tumor weight gain (mg) following treatments ([11]; day 5): 160.5%
Mean tumor Weights (mg) Following Treatments ([11]; day 8): 141.1 mg
Percent mean tumor weight gain (mg) following treatments ([11]; day 8): 211.2%
Mean tumor Weights (mg) Following Treatments ([11]; day 12): 185.4 mg
Percent mean tumor weight gain (mg) following treatments ([11]; day 12): 277.5%
Mean tumor Weights (mg) Following Treatments ([11]; day 15): 205.2 mg
Percent mean tumor weight gain (mg) following treatments ([11]; day 15): 307.2%
Mean tumor Weights (mg) Following Treatments ([11]; day 19): 325.3 mg
Percent mean tumor weight gain (mg) following treatments ([11]; day 19): 487.0%
Mean tumor Weights (mg) Following Treatments ([11]; day 22): 389.4 mg
Percent mean tumor weight gain (mg) following treatments ([11]; day 22): 582.9%
reduction of mean tumor growth vs vehicle control ([11]; positive control, 1 mg/kg daily intravenously for 5 days): 27.9%

apoptotic EC50 [5]: PPT
Molecule: Cc1c(C)c2c(c(C)c1N=Nc1ccc([N+](=O)[O-])cc1[N+](=O)[O-])CCC(C)(CCCC(C)CCCC(C)CCCC(C)C)N2 (stereo not drawn) [Compound 43]

apoptotic EC50 [2]: 5-10
apoptotic EC50 [3]: 10-20
apoptotic EC50 [4]: 5-10
apoptotic EC50 ([5]; in µg/mL): 10-20
apoptotic EC50 [6]: 20-30
apoptotic EC50 [7]: 10-20
apoptotic EC50 [9]: 5-10
apoptotic EC50 [10]: 10-20
Molecule: Cc1c(C)c2c(c(C)c1OCCC(=O)O)CC[C@@](C)(CCC[C@H](C)CCC[C@H](C)CCCC(C)C)O2 [Compound 2, 2,5,7,8-tetramethyl-(2R-(4R,8R,12-trimethyltridecyl)chroman-6-yloxy) propionic acid]
growth inhibitory (apoptotic inducing) properties specific for human cancer cells [1]: effective

EC50 [5]: > 20 µg/mL
EC50 [6]: > 20 µg/mL
EC50 [10]: > 20 µg/mL
Molecule: Cc1c(C)c2c(c(C)c1OCC(=O)O)CC[C@](C)(C(=O)O)O2 [Compound 16]

apoptotic EC50 ([5]; in µg/mL): 10-20
Molecule: Cc1c(C)c(OCC(=O)O)c(C)c2c1NC(C)(CCCC(C)CCCC(C)CCCC(C)C)CC2 (stereo not drawn) [Compound 39, 1-Aza-α-tocopherol-6-yloxyl-acetic acid]
growth inhibitory (apoptotic inducing) properties specific for human cancer cells [1]: effective

EC50 [12]: > 20 µg/mL
EC50 [2]: > 20 µg/mL
EC50 ([3]; Homo sapiens, HL-60, HL-60, unit inferred): > 20 µg/mL
EC50 [5]: > 20 µg/mL
EC50 [6]: > 20 µg/mL
EC50 [7]: > 20 µg/mL
EC50 [8]: > 20 µg/mL
EC50 [9]: > 20 µg/mL
EC50 [10]: > 20 µg/mL
Molecule: Cc1c(C)c2c(c(C)c1OCC(N)=O)CC[C@@](C)(CCC[C@H](C)CCC[C@H](C)CCCC(C)C)O2 [Compound 10, 2,5,7,8-tetramethyl-(2R-(4R,8R,12-trimethyltridecyl)chroman-6-yloxy)acetamide]
EC50 [13]: > 20 µg/mL

Molecule: O=c1[nH]cc(F)c(=O)[nH]1 [Compound 5-FU, 5 Fluorouracil, reference compound]
Mean tumor Weights (mg) Following Treatments ([14]; day 1): 59.3 mg
Percent mean tumor weight gain (mg) following treatments ([14]; day 1): 100%
Mean tumor Weights (mg) Following Treatments ([14]; day 5): 87.5 mg
Percent mean tumor weight gain (mg) following treatments ([14]; day 5): 147.6%
Mean tumor Weights (mg) Following Treatments ([14]; day 8): 105.8 mg
Percent mean tumor weight gain (mg) following treatments ([14]; day 8): 178.4%
Mean tumor Weights (mg) Following Treatments ([14]; day 12): 145.8 mg
Percent mean tumor weight gain (mg) following treatments ([14]; day 12): 245.9%
Mean tumor Weights (mg) Following Treatments ([14]; day 15): 141.6 mg
Percent mean tumor weight gain (mg) following treatments ([14]; day 15): 247.2%
Mean tumor Weights (mg) Following Treatments ([14]; day 19): 212.3 mg
Percent mean tumor weight gain (mg) following treatments ([14]; day 19): 358.0%
Mean tumor Weights (mg) Following Treatments ([14]; day 22): 255.5 mg
Percent mean tumor weight gain (mg) following treatments ([14]; day 22): 430.0%
reduction of mean tumor growth vs vehicle control ([14]; positive control, 30 mg/kg daily for 5 days): 31.4%

EC50 [2]: 10 to 20 µg/mL (≈ 19.8 to 39.6 µM)
EC50 [6]: 10 to 20 µg/mL (≈ 19.8 to 39.6 µM)
Molecule: C/C(=C\CSc1cc(C)c(OCC(=O)O)c(C)c1C)CCCC(C)CCCC(C)CCCC(C)C (stereo not drawn) [Compound 27, E.Z,RS,RS,RS-(phytyltrimethylbenzenethiol-6-yloxy)acetic acid]
growth inhibitory (apoptotic inducing) properties specific for human cancer cells [1]: effective

EC50 [5]: 20 to 30 µg/mL (≈ 40.9 to 61.4 µM)
EC50 [6]: 20 to 30 µg/mL (≈ 40.9 to 61.4 µM)
EC50 [7]: > 20 µg/mL
EC50 [8]: > 20 µg/mL
EC50 [9]: > 20 µg/mL
EC50 [10]: 20 to 30 µg/mL (≈ 40.9 to 61.4 µM)
Molecule: Cc1c(C)c2c(c(C)c1OCC(=O)O)CCC(C)(CCCC(C)CCCC(C)CCCC(C)C)O2 (racemic) [Compound 15, 2,5,7,8-tetramethyl-(2RS-(4RS,8RS,12-trimethyltridcyl)chroman-6-yloxy)acetic acid]
growth inhibitory (apoptotic inducing) properties specific for human cancer cells [1]: effective

apoptotic EC50 [9]: 1-5
Molecule: 2-(2,5,7,8-tetramethyl-(2R-(4R,8,12-trimethyltridecyl)chroman-6-yloxy)triethylammonium sulfate [Compound 21]
growth inhibitory (apoptotic inducing) properties specific for human cancer cells [1]: effective

Molecule: CC(=O)O[C@H]1C(=O)[C@@]2(C)[C@H]([C@H](OC(=O)c3ccccc3)[C@]3(O)C[C@H](OC(=O)[C@H](O)[C@@H](NC(=O)c4ccccc4)c4ccccc4)C(C)=C1C3(C)C)[C@]1(OC(C)=O)CO[C@@H]1C[C@@H]2O [Taxol, reference compound]
Percent mean tumor weight gain (mg) following treatments ([15]; day 1): 100%
Percent mean tumor weight gain (mg) following treatments ([15]; day 4): 101.1%
Mean tumor Weights (mg) Following Treatments ([15]; day 7): 38.2 mg
Percent mean tumor weight gain (mg) following treatments ([15]; day 7): −46.0%
Mean tumor Weights (mg) Following Treatments ([15]; day 10): 11.7 mg
Percent mean tumor weight gain (mg) following treatments ([15]; day 10): −83.7%
Mean tumor Weights (mg) Following Treatments ([15]; day 14): 5.7 mg
Percent mean tumor weight gain (mg) following treatments ([15]; day 14): −91.8%
Mean tumor Weights (mg) Following Treatments ([15]; day 17): 3.6 mg
Percent mean tumor weight gain (mg) following treatments ([15]; day 17): −99.5%
Mean tumor Weights (mg) Following Treatments ([15]; day 21): 6.8 mg
Percent mean tumor weight gain (mg) following treatments ([15]; day 21): −90.3%
reduction of mean tumor growth vs vehicle control ([15]; positive control, 20 mg/kg intraperitoneally daily for 5 days): 90.3%
